In experiment [1] the test system is rat formalin model (paw flinches). The experiment can be described thus: Formalin-induced pain model. The experiment is classed as in vivo. Conditions: 30 mg/kg IP, 10 minutes prior to formalin, saline control=100%. As for the experimental part: […] The compounds were reconstituted to stock solutions of approximately 10 mg/ml in propylene glycol. Eight Holtsman male rats of 275-375 g size were randomly selected per test article.
The following study groups in Table 6 were used, with test article, vehicle control (propylene glycol) and saline delivered intraperitoneally (IP):
Prior to initiation of drug delivery, baseline behavioral and testing data were taken.
On the morning of testing, a small metal band (0.5 g) was loosely placed around the right hind paw. The rat was placed in a cylindrical Plexiglas chamber for adaptation a minimum of 30 minutes. Test Article or Vehicle Control Article was administered 10 minutes prior to formalin injection (50 μl of 5% formalin) into the dorsal surface of the right hindpaw of the rat. The animal was then placed into the chamber of the automated formalin apparatus where movement of the formalin injected paw was monitored and the number of paw flinches tallied by minute over the next 60 minutes (Malmberg, A. B., supra).
Results are presented as Maximum Possible Effect±SEM, where saline control=100% (Table 7)

The target in experiment [2] is T1, L-type channels (α1C+α2δ+β1b cDNA subunits) (Homo sapiens, UniProt Q13936).
T1 construct: expressed in transfected cells; host or cells: HEK 293 (human embryonic kidney cells)
The experiment is described as follows: Selectivity for N-type over L-type channels, whole cell patch recordings in HEK 293 cells. The experiment is classed as cell-based. As for the experimental part:
(§1) Calcium channel blocking activity was measured using whole cell patch recordings on human embryonic kidney cells transiently expressing rat α1B+α2δ+β1b channels (N-type channels) with 5 mM barium as a charge carrier. Channel block was also measured in P/Q-type channels (α1A+α2δ+β1b cDNA subunits) and L-type channels (α1C+α2δ+β1b cDNA subunits).
(§2) HEK 293 Host cells (ATCC# CRL 1573) were grown in standard DMEM medium supplemented with 2 mM glutamine and 10% fetal bovine serum. HEK 293 cells were transfected by a standard calcium-phosphate-DNA coprecipitation method using the rat α1B+β1b+α2δ N-type calcium channel subunits in a vertebrate expression vector (for example, see Current Protocols in Molecular Biology).
(§3) After an incubation period of 24 to 72 hours, the culture medium was removed and replaced with external recording solution (see below). Whole cell patch clamp experiments were performed using an Axopatch 200B amplifier (Axon Instruments, Burlingame, Calif.) linked to an IBM compatible personal computer equipped with pCLAMP software. Borosilicate glass patch pipettes (Sutter Instrument Co., Novato, Calif.) were polished (Microforge, Narishige, Japan) to a resistance of about 4 MΩ when filled with cesium methanesulfonate internal solution (composition in MM: 109 CsCH3 SO4, 4 MgCl2, 9 EGTA, 9 HEPES, pH 7.2). Cells were bathed in 5 mM Ba^++ (in mM: 5 BaCl2, 1 MgCl2, 10 HEPES, 40 tetraethylammonium chloride, 10 glucose, 87.5 CsCl pH 7.2). Current data shown were elicited by a train of 100 ms test pulses at 0.066 Hz from −100 mV and/or −80 mV to various potentials (min. −20 mV, max. +30 mV). Drugs were perfused directly into the vicinity of the cells, using a microperfusion system.
(§4) Normalized dose-response curves were fit (Sigmaplot 4.0, SPSS Inc., Chicago, Ill.) by the Hill equation to determine IC50 values. Steady-state inactivation curves were plotted as the normalized test pulse amplitude following 5 s inactivating prepulses at +10 mV increments. Inactivation curves were fit (Sigmaplot 4.0) with the Boltzman equation, Ipeak (normalized)=1/(1+exp((V-Vh)z/25.6)), where V and Vh are the conditioning and half inactivation potentials, respectively, and z is the slope factor.
(§5) The same protocol was followed for cell lines expressing P/Q-type channels and L-type channels.

Experiment [3] has as its target T2, human α1G T-type channels (Homo sapiens, UniProt O43497).
T2 construct: expressed in transfected cells
The experiment is described as follows: Block of α1G T-type channels, whole-cell patch clamp in HEK cells. Particulars: test pulse −40 mV. The format is cell-based. The procedure:
Standard patch-clamp techniques were employed to identify blockers of T-type currents. Briefly, previously described HEK cell lines stably expressing human α1G T-type channels were used for all the recordings (passage #: 4-20, 37° C., 5% CO2). To obtain T-type currents, plastic dishes containing semi-confluent cells were positioned on the stage of a ZEISS AXIOVERT S100 microscope after replacing the culture medium with external solution (Table 3). Whole-cell patches were obtained using pipettes (borosilicate glass with filament, O.D.: 1.5 mm, I.D.: 0.86 mm, 10 cm length), fabricated on a SUTTER P-97 puller with resistance values of ˜5 MΩ (Table 4 ).
T-type currents were reliably obtained by using two voltage protocols: “non-inactivating”, and “inactivation”. In the non-inactivating protocol, the holding potential is set at −110 mV and with a pre-pulse at −100 mV for 1 second prior to the test pulse at −40 mV for 50 ms. In the inactivation protocol, the pre-pulse is at approximately −85 mV for 1 second, which inactivates about ^15% of the T-type channels.
Test compounds were dissolved in external solution, 0.1-0.01% DMSO. After ˜10 min rest, they were applied by gravity close to the cell using a WPI microfil tubing. The “non-inactivated” pre-pulse was used to examine the resting block of a compound. The “inactivated” protocol was employed to study voltage-dependent block. However, the initial data shown below were mainly obtained using the non-inactivated protocol only. IC50 values are shown for various compounds of the invention in Table 5.

The target of experiment [4] is T3, P/Q-type channels (α1A+α2δ+β1b cDNA subunits) (Homo sapiens, UniProt O00555).
T3 construct: expressed in transfected cells; host or cells: HEK 293 (human embryonic kidney cells)
The experiment can be described thus: Selectivity for N-type over P/Q-type channels, whole cell patch recordings in HEK 293 cells. The experiment is classed as cell-based. As for the experimental part:
as §1, §2, §3, §4, §5

Experiment [5] concerns the target T4, rat brain N-type calcium channel subunits (α1B+α2δ+β1b cDNA subunits) (Rattus norvegicus, UniProt Q02294).
T4 construct: expressed in transfected cells; host or cells: HEK 293
The experiment is described as follows: N-type calcium channel block, whole cell patch clamp in HEK 293 cells. The experiment is classed as cell-based. Conditions: holding potential −80 mV to +10 mV, 5 mM BaCl2.
Source text: as §4
The methods of Example 11 were followed with slight modifications as will be apparent from the description below.
N-type calcium channel blocking activity was assayed in human embryonic kidney cells, HEK 293, stably transfected with the rat brain N-type calcium channel subunits (α1B+α2δ+β1b cDNA subunits). Briefly, cells were cultured in Dulbecco's modified eagle medium (DMEM) supplemented with 10% fetal bovine serum, 200 U/ml penicillin and 0.2 mg/ml streptomycin at 37° C. with 5% CO2. At 85% confluency, cells were split with 0.25% trypsin/1 mM EDTA and plated at 10% confluency on glass coverslips. At 12 hours the medium was. replaced and the cells transfected using a standard calcium phosphate protocol and the appropriate calcium channel cDNAs. Fresh DMEM was supplied and the cells transferred to 28° C./5% CO2. Cells were incubated for 1 to 2 days to whole cell recording.
Whole cell patch clamp experiments were performed using an Axopatch 200B amplifier (Axon Instruments, Burlingame, Calif.) linked to a personal computer equipped with pCLAMP software. The external and internal recording solutions contained, respectively, 5 mM BaCl2, 10 mM MgCl2, 10 mM HEPES, 40 mM TEACl, 10 mM glucose, 87.5 mM CsCl (pH 7.2) and 108 mM CsMS, 4 mM MgCl2, 9 mM EGTA, 9 mM HEPES (pH 7.2). Currents were typically elicited from a holding potential of −80 mV to +10 mV using Clampex software (Axon Instruments). Typically, currents were first elicited with low frequency stimulation (0.067 Hz) and allowed to stabilize prior to application of the compounds. The compounds were then applied during the low frequency pulse trains for two to three minutes to assess tonic block, and subsequently the pulse frequency was increased to 0.2 Hz to assess frequency dependent block. Data were analyzed using Clampfit (Axon Instruments) and SigmaPlot 4.0 (Jandel Scientific).
(In general: The patch-clamp technique gives a direct electrical read-out from membranes.)

For experiment [6], the system named is T-type over L-type channels. Particulars: cited from earlier work.
Setting [7] is: −80 mV (inactivation protocol), read-out: IC50 at −80 mV.
[8] abbreviates: −100 mV (non-inactivating protocol), read-out: IC50 at −100 mV.
Setting [9] is: frequency dependent block, pulse frequency 0.2 Hz, read-out: IC50 at 0.2 Hz.
Where [10] appears, read: tonic block, low frequency stimulation 0.067 Hz, read-out: IC50 at 0.067 Hz.

Like-named read-outs stand apart in the source and are kept apart here.

T4 sequence (Q02294 whole entry): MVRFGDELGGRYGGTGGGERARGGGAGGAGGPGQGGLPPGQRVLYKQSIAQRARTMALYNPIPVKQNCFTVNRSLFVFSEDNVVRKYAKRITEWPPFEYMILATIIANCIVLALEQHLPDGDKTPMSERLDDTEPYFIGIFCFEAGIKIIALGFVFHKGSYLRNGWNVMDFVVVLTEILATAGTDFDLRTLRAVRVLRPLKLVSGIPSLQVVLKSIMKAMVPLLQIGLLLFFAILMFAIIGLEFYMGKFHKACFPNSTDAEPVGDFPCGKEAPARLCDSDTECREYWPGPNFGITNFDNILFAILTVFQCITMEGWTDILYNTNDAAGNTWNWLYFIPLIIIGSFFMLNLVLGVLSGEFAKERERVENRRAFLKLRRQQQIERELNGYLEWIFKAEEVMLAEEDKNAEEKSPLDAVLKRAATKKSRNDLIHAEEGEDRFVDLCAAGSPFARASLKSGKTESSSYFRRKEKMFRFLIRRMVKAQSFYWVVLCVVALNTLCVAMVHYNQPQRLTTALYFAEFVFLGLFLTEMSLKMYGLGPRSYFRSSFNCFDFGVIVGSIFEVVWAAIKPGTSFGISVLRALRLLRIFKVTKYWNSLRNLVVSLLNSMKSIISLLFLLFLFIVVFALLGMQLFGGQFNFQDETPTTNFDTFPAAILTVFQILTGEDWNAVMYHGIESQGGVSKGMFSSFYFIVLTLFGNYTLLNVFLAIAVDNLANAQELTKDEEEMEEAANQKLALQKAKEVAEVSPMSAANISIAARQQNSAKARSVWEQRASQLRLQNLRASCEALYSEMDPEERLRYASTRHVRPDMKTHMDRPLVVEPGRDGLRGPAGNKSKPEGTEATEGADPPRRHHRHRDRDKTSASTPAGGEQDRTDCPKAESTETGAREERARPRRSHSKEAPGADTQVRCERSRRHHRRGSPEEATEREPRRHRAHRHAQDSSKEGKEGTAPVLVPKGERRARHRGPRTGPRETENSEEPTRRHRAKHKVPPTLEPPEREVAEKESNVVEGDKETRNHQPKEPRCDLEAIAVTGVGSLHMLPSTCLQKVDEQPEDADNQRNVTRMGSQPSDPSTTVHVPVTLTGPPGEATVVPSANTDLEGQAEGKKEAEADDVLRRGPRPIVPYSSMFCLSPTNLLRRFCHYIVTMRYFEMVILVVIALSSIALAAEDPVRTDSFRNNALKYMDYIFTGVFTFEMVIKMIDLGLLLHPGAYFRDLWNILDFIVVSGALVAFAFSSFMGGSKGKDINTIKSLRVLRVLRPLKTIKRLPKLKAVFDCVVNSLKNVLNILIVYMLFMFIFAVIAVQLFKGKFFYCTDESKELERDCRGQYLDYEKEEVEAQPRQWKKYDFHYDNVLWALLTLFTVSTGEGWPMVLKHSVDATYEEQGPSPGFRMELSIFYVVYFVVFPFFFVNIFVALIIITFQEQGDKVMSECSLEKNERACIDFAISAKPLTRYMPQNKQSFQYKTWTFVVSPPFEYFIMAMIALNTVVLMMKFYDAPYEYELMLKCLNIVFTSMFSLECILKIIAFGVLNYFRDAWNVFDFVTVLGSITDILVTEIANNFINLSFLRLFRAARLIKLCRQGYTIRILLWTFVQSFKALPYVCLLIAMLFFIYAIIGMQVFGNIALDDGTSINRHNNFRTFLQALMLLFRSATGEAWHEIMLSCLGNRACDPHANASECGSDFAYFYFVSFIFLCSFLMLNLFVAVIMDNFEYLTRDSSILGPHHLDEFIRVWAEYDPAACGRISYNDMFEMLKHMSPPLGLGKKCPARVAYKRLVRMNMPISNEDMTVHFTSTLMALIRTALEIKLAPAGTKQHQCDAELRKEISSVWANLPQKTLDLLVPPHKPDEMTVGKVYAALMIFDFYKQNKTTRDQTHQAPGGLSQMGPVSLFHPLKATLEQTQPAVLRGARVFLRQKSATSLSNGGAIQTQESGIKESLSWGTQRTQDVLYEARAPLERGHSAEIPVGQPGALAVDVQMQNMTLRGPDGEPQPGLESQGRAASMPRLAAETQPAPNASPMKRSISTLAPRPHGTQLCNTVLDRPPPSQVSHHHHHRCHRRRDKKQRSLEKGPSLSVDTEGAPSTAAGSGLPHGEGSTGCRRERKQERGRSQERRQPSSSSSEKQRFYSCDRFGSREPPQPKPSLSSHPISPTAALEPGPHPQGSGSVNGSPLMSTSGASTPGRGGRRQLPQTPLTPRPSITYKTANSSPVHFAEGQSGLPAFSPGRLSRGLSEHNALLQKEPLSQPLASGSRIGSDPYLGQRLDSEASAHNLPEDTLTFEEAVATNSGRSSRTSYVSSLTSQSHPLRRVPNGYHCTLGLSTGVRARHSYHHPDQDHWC
T4 sequence (P54290 25-944 partner limits assumed): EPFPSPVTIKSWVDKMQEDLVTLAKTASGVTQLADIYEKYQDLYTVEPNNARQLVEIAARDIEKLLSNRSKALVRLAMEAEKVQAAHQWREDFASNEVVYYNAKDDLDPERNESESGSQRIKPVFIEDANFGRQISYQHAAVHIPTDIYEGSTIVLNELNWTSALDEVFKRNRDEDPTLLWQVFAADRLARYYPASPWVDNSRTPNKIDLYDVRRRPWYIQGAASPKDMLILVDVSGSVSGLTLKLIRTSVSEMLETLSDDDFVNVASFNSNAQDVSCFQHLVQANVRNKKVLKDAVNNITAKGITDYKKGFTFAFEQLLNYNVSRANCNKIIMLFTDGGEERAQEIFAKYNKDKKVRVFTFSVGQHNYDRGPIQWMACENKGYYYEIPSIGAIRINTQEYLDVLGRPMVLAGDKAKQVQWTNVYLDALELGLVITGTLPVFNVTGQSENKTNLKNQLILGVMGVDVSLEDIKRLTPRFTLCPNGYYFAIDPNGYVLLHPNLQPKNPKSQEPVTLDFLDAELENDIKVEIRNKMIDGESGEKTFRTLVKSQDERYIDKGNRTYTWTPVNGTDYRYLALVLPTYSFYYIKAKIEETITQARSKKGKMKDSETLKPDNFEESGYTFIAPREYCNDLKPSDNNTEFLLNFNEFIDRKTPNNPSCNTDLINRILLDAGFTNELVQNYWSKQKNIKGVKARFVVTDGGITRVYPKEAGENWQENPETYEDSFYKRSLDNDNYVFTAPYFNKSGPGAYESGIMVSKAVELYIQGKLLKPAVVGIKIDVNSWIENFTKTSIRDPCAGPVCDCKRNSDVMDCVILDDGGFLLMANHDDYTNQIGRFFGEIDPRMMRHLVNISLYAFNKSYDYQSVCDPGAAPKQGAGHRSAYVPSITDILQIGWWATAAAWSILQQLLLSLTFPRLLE
T4 sequence (P54290 945-1091 partner limits assumed): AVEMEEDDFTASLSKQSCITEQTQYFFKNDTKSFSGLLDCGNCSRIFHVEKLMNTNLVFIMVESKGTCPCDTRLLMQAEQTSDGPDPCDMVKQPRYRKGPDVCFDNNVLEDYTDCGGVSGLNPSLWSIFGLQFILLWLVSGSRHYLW
T4 sequence (P54283 whole entry partner): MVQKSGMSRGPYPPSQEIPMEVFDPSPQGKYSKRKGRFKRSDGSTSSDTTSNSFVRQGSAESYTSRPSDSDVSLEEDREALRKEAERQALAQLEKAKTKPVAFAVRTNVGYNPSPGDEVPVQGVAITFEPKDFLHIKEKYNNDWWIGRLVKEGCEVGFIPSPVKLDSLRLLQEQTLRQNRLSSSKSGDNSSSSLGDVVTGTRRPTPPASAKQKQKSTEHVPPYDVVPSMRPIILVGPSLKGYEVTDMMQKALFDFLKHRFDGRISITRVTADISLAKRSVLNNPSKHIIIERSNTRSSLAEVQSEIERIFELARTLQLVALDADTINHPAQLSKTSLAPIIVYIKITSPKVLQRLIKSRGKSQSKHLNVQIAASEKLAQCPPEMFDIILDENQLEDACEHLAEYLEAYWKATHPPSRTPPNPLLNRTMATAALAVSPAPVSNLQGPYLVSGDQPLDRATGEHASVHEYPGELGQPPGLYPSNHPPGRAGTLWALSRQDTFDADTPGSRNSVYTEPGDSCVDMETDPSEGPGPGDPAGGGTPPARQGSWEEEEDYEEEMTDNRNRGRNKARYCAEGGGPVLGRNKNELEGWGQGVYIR

By IC50 is commonly meant the concentration at which inhibition is half-maximal. Regarding “(S)-6,6-Bis-(4-fluoro-phenyl)-hexanoic acid[1-(3,5-di-tert-butyl-4-methoxy-benzoyl)-pyrrolidin-3-yl]-methyl-amide [Compound P5]”, the “Maximum Possible Effect ± SEM, Phase I” value in experiment [1] was 88 ± 13%. In experiment [1], the “Maximum Possible Effect ± SEM, Phase II” value amounted to 62 ± 4%. In experiment [1], the “Maximum Possible Effect ± SEM, Phase IIA” value is reported as 47 ± 5%. Besides, the “selectivity for N-type over L-type channels” value in experiment [2] is listed as “greater than 2000 fold”. Besides, the IC50 stood at 13 nM in experiment [3] (setting [7]), 73 nM in experiment [3] (setting [8]), 29 nM in experiment [5] (setting [9]) and 45 nM in experiment [5] (setting [10]). For the same compound, the “selectivity for N-type over P/Q-type channels” value in experiment [4] is recorded as “approximately 31 fold”.

As to `COc1c(C(C)(C)C)cc(C(=O)N(C)[C@@H]2CCN(C(=O)CCCCC(c3ccc(F)cc3)c3ccc(F)cc3)C2)cc1C(C)(C)C` [Compound P1, (R)—N-{1-[6,6-Bis-(4-fluoro-phenyl)-hexanoyl]-pyrrolidin-3-yl}-3,5-di-tert-butyl-4-methoxy-N-methyl-benzamide], the “Maximum Possible Effect ± SEM, Phase I” value in experiment [1] turned out to be 94 ± 11%. Moreover, the “Maximum Possible Effect ± SEM, Phase II” value in experiment [1] came to 79 ± 14%. The “Maximum Possible Effect ± SEM, Phase IIA” value in experiment [1] worked out at 72 ± 16%. Besides, the “selectivity for N-type over L-type channels” value in experiment [2] was roughly 75 fold. Besides, the IC50 worked out at 8 nM in experiment [3] (setting [7]), 91 nM in experiment [5] (setting [9]) and 120 nM in experiment [5] (setting [10]). In experiment [4], the “selectivity for N-type over P/Q-type channels” value is “approximately 23 fold”.

In the case of `COc1c(C(C)(C)C)cc(C(=O)N(C)[C@H]2CCN(C(=O)CCCCC(c3ccc(F)cc3)c3ccc(F)cc3)C2)cc1C(C)(C)C` [Compound P4, (S)-N-{1-[6,6-Bis-(4-fluoro-phenyl)-hexanoyl]-pyrrolidin-3-yl}-3,5-di-tert-butyl-4-methoxy-N-methyl-benzamide], the “Maximum Possible Effect ± SEM, Phase I” value in experiment [1] came out at 50 ± 10%. Also, the “Maximum Possible Effect ± SEM, Phase II” value in experiment [1] is 51 ± 10%. Further, the “Maximum Possible Effect ± SEM, Phase IIA” value in experiment [1] is reported as 42 ± 13%. Besides, the “selectivity for N-type over L-type channels” value in experiment [2] is “greater than 5000 fold”. Also, the IC50 in experiment [3] (setting [7]) was determined as 390 nM; in experiment [3] (setting [8]) it was 230 nM; in experiment [5] (setting [9]), 62 nM; in experiment [5] (setting [10]) it was 93 nM. The “selectivity for N-type over P/Q-type channels” value in experiment [4] is recorded as “approximately 12 fold”.

`COCC(=O)O[C@]1(CCN(C)CCCc2nc3ccccc3[nH]2)CCc2cc(F)ccc2[C@@H]1C(C)C` [Mibefradil]: the “selective for T-type over L-type channels” value in experiment [6] is 10-30 fold.

With “(R)-6,6-Bis-(4-fluoro-phenyl)-hexanoic acid[1-(3,5-di-tert-butyl-4-methoxy-benzoyl)-pyrrolidin-3-yl]-methyl-amide [Compound P2]”, in experiment [1], the “Maximum Possible Effect ± SEM, Phase I” value was found to be 70 ± 8%. Besides, the “Maximum Possible Effect ± SEM, Phase II” value in experiment [1] worked out at 82 ± 9%. Also, the “Maximum Possible Effect ± SEM, Phase IIA” value in experiment [1] is 71 ± 12%. Moreover, in experiment [2], the “selectivity for N-type over L-type channels” value is “greater than 1000 fold”. Also, the IC50 came to 51 nM in experiment [3] (setting [7]), 117 nM in experiment [3] (setting [8]), 32 nM in experiment [5] (setting [9]) and 67 nM in experiment [5] (setting [10]). The “selectivity for N-type over P/Q-type channels” value in experiment [4] is “approximately 9 fold”.

The values are drawn from patent US7507760B2, “N-type calcium channel blockers” (Neuromed Pharmaceuticals Ltd., priority 2004, dated 2009).
